Our source for the IC50 values is patent US5491167A, “Hexahydronaphthalene ester derivatives, their preparation and their therapeutic uses” (Sankyo Company, Limited, priority 1993, dated 1996).

Where a name gives a salt, the structure may show the parent alone.

In the assay the target is T1, HMG-CoA reductase (Rattus norvegicus, UniProt P51639).
T1 construct: an enzyme solution (rat liver microsomal fraction); from tissue; host or cells: rat liver microsomal fraction
T1 sequence (P51639 1-887): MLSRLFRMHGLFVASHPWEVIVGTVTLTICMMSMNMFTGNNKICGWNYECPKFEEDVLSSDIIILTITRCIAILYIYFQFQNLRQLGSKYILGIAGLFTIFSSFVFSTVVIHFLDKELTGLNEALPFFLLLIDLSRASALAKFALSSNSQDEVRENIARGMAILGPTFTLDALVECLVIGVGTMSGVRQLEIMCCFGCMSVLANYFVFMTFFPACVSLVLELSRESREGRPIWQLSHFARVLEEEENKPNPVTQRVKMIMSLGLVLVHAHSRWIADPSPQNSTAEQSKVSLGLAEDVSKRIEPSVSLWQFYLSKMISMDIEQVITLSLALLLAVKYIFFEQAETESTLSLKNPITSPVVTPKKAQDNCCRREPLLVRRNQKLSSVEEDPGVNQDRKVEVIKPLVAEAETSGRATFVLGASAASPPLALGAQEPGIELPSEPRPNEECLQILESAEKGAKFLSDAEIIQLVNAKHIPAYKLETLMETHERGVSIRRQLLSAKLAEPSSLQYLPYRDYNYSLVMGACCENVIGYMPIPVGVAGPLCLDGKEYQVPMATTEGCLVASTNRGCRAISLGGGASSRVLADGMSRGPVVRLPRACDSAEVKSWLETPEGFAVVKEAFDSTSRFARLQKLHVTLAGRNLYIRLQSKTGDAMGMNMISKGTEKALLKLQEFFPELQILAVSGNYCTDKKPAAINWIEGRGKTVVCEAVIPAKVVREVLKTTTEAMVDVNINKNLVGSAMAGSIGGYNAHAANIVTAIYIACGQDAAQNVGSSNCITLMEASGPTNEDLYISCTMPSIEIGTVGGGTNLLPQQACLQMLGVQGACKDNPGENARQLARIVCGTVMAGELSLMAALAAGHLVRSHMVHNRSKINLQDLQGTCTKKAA
Put plainly: Determination of HMG-CoA Reductase Inhibitory Activity. The format is biochemical. The conditions noted are these: rat liver microsomal fraction, 0.2 mM [14C]HMG-CoA, pH7.4, 15 minutes at 37° C. The protocol:
The ability of the preferred test compounds to inhibit the activity of HMG-CoA reductase was determined by the method of Koga et al. [Eur. J. Biochem. 209, 315-319 (1992)], the improved procedure of Kuroda et al. [Biochem. Biophys, Acta, 485, 70-81 (1977)] which a modification of the method of Shapiro et al. [Anal. Biochem. 31, 383-390, (1969)].
A solution of 5 μl of the preferred test compound dissolved in distilled water was added to 45 μl of a reaction mixture containing 100 mM of a potassium phosphate buffer (pH7.4), 0.2 mM of [^14 C]HMG-CoA, 10 mM of ethylenediaminetetraacetic acid disodium salt, 10 mM of dithiothreitol, 10 mM of NADPH (=reduced nicotinamide adenine dinucleotide phosphate) and an enzyme solution (rat liver microsomal fraction). The concentrations are expressed in terms of the final 50 μl of assay mixture. The resulting mixture was incubated for 15 minutes at 37° C. The reaction was then terminated by adding 10 μl of 2N aqueous hydrochloric acid, to lactonize the [^14 C]mevalonate produced. After 15 minutes incubation, 1 ml of a 1:1 by volume aqueous suspension of Biorex-5 was added and the tubes were vigorously mixed using a Vortex mixer. […] The supernatant (400 μl) was mixed with 4.5 ml of Optiflow™ in scintillation vials and the activity of the [^14 C]mevalonolactone was determined by a liquid scintillation counter.

The IC50 is the point on the concentration scale where inhibition reaches its midpoint. `CCC(Oc1ccc(C)cc1)C(=O)O[C@H]1C[C@H](O)C=C2C=C[C@H](C)[C@H](CC[C@@H](O)C[C@@H](O)CC(=O)O)[C@H]21` (stereo partly drawn) [Example 3, Sodium Salt of (3R,5R)-3,5-dihydroxy-7-{(1S,2S,6S,8S,8aR)-1,2,6,7,8,8a-hexahydro-6-hydroxy-8-[(2RS)-2-(4-methylphenoxy)butyryloxy]-2-methyl-1-naphthyl}heptanoic acid]: 30.6 nM corresponded to half-maximal inhibition (IC50).
In turn, `CCC(Oc1c(C)cccc1C)C(=O)O[C@H]1C[C@H](O)C=C2C=C[C@H](C)[C@H](CC[C@@H](O)C[C@@H](O)CC(=O)O)[C@H]21` (stereo partly drawn) [Example 6, Sodium salt of (3R,5R)-3,5-dihydroxy-7-{(1S,2S,6S,8S,8aR)-1,2,6,7,8,8a-hexahydro-6-hydroxy-8-[(2RS)-2-(2,6-dimethylphenoxy)butyryloxy]-2-methyl-1-naphthyl}heptanoicacid] came in with a concentration for half-maximal inhibition (IC50) of 33.5 nM.
